Three molecules from patent publication US11365184B2, “Antiproliferative compounds, and their pharmaceutical compositions and uses” (Celgene Corporation, priority 2016, dated 2022) can be followed below.

The test system of the assay is KG-1 cell line. Nature of the assay: KG-1 cell proliferation assay (Cell Titer-Glo). To be noted: Homo sapiens; KG-1 cells, 72 hours post-treatment, Cell Titer-Glo luminescence; read-out: FCA Prolif Cell TiterGlo KG-1 72 h (IC50). Type of assay: cell-based. The method, then:
The following is an example of an assay that can be used to determine the anti-proliferative activity of Compound A and Compound B in KG-1 cell line (American Type Culture Collection [ATCC]: catalogue number ATCC© CCL-246™) at 72 hours post-treatment. The seeding density for KG-1 can be optimized to ensure assay linearity in 384-well plates.
Increasing concentrations of test compounds (0.5 nM to 10 μM) was spotted in a 10-point serial dilution fashion (3-fold dilution) in duplicate via an acoustic dispenser (EDC ATS-100) into an empty 384-well plate. The dimethyl sulfoxide (DMSO) concentration was kept constant for a final assay concentration of 0.1% DMSO. Prior to testing, KG-1 cells were grown in RPMI-1640 (Roswell Park Memorial Institute-1640) medium with 10% FBS (fetal bovine serum: HyClone) and expanded in culture flasks to provide sufficient amounts of starting material. Cells were then diluted to 5000 cells per well, in a 50 μL volume and added directly to the compound-spotted 384-well plates. Cells were allowed to grow for 72 hours in 5% CO2 at 37° C. At the time when exposure of cells to compound began (to), initial viable cell number was assessed via Cell Titer-Glo® Luminescent Cell Viability Assay at a 1 vol: 2 vol ratio according to manufacturer's instructions (Promega Corporation, Madison, Wis.) by quantifying the level of luminescence generated by adenosine-5′-triphosphate (ATP) present in viable cells. After 72 hours, cell viability of the treated cells is assessed via Cell Titer-Glo® and read for luminescence.
`O=C1CCC(N2Cc3cc(CNC(=O)C(F)(F)c4ccc(Cl)cc4)ccc3C2=O)C(=O)N1COP(=O)(O)O` (stereo not drawn): the IC50 was in the range of 100 to 700 nM.

With `O=C1CCC(N2Cc3cc(CNC(=O)C(F)(F)c4ccc(F)cc4)ccc3C2=O)C(=O)N1COP(=O)(O)O` (stereo not drawn), the IC50 fell in the range of 100 to 700 nM. Turning to `CC(C)[C@H](N)C(=O)OCN1C(=O)CCC(N2Cc3cc(CNC(=O)C(F)(F)c4ccc(F)cc4)ccc3C2=O)C1=O` (stereo partly drawn), the IC50 lay within 10 to 100 nM.

What is called IC50 is the concentration that gives 50% inhibition.
